The record followed here is US10000791B2, “Measurement method for human pancreatic lipase activity” (ASAHI KASEI PHARMA CORPORATION, priority 2013, dated 2018).

This test has as its target T1, human pancreatic lipase (Homo sapiens, UniProt P16233).
T1 construct: As a sample, pooled serum or a control sample (a control containing a pancreatic lipase) was used; from tissue; host or cells: human serum (pooled serum, normal samples, heparin-administered samples) and control sera
T1 sequence (P16233 17-465): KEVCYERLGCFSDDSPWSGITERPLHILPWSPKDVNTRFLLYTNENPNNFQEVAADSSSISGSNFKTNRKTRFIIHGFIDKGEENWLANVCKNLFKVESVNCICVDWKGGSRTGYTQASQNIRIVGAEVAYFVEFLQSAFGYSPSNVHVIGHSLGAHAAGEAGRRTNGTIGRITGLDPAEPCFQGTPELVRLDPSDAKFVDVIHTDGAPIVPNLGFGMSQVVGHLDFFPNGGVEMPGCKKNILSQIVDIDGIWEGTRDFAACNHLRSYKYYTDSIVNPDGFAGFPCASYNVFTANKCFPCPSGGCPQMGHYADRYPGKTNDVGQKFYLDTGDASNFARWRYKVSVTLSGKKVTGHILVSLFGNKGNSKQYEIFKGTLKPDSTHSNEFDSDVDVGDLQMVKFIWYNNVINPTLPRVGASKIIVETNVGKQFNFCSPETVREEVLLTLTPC
Description: lipase activity measured in control, normal and heparin-administered samples with each reagent (1,2-dioleoyl glycerol, UV method; Liquitech Lipase Color II for verification). It counts as biochemical. The following applies: Recombinant pancreatic lp-containing serum.

Take `C[C@H](CCC(=O)NCC(=O)[O-])[C@H]1CC[C@H]2[C@@H]3[C@H](O)C[C@@H]4C[C@H](O)CC[C@]4(C)[C@H]3CC[C@]12C.[Na+]` [NaGCDCA, sodium glycochenodeoxycholate]: the “lipase activity (Table 5)” value worked out at 166.1 U/L (pH 7.0) and 72.4 U/L (pH 7.95).

With `C[C@H](CCC(=O)NCCS(=O)(=O)[O-])[C@H]1CC[C@H]2[C@@H]3CC[C@@H]4C[C@H](O)CC[C@]4(C)[C@H]3C[C@H](O)[C@]12C.[Na+]` [NaTDCA, sodium taurodeoxycholate], the “lipase activity (Table 3)” value reads like this: (pH 6.2) 180.8 U/L; (pH 6.4) 184.7 U/L; (pH 6.6) 211.9 U/L; (pH 6.9) 233.1 U/L; (pH 7.2) 229.8 U/L; (pH 7.4) 217.3 U/L. Under “pH 7.6”, the “lipase activity (Table 3)” value is reported as 168.8 U/L.
